Consider one molecule from patent US5110925A, “Pyridazinone derivatives” (Nippon Soda Co., Ltd., priority 1988, dated 1992).

Series [1] concerns guinea pig left atria. The series can be described thus: Cardiotonic Action: Electrically Stimulating Isolated Guinea Pig Left Atria. More on the design: species or system guinea pig (male Hartley). The note with it: Cavia porcellus, read-out: contractility of guinea pig left atria EC50. How it is done:
Male Hartley guinea pigs weighing 350-500 g were used.
The hearts were excised from the animals. The left atria were dissected from the hearts and mounted in an organ bath.
The atria were stimulated by square wave pulses of 3 msec duration and a voltage ranging from 1.2-fold to 1.5-fold of the threshold at a frequency of 60/min with an electric stimulator.
Resting tension was adjusted to 0.5 g and contraction was recorded on the Polygraph Systems with a force-displacement transducer.
All preparations were allowed to equilibrate with the bath medium for 90 to 120 min.

Series [2] deals with Anesthetized Dogs. The series can be described thus: Cardiotonic Action: Anesthetized Dogs. The format is in vivo, dog (adult mongrel). The procedure: Adult mongrel dogs of either sex weighing 8 to 15 kg were used.
The animals were anesthetized with sodium pentobarbital (30 mg/kg, i.v.) and maintained by an intravenous infusion of the anesthetic at a rate of 4 mg/kg per hour.
A cuffed endotracheal tube was inserted and an artificial respirator installed. The animals were ventilated with room air in a tidal volume of 20 ml/kg at a rate of 20 brearhs per minute.
Cannulae were inserted into the femoral vein for a falling drop of a physiological saline or for an infusion of the anesthetic, and into the femoral artery for measuring arterial blood pressure with a pressure transducer. Heart rate was recorded with a heart rate counter triggered by the R wave of the electrocardiogram (ECG).
ECG in standard lead II was monitored with a bioelectric amplifier.
Left ventricular pressure was measured with a catheter tip pressure transducer inserted via the right carotid artery into the left ventricle. Left ventricular dp/dtmax was obtained by an electric differentiator.
The compounds were injected through the cannula in the femoral vein at a dose of 0.001-0.3 mg/0.1 ml/kg.

In series [3] the target is PDE-I. Nature of the series: Inhibition of Phosphodiesterase PDE-I. The format is biochemical, guinea pig (left ventricular muscles). The note with it: 1 mM 3H-cAMP substrate. An excerpt:
(§1) The preparation of different forms of cyclic nucleotide phosphodiesterase from guinea pig left ventricular muscles was done by following the procedure of Weishaar, et al. (R. Weishaar, et al., Biochemical Pharmacology, 35, 787-800, 1986) with the minor modified method of Thompson, et al. (W. J. Thompson, et al., Advances in Cyclic Nucleotide Research, 10, 69-92, 1979). Briefly, the three active forms of phosphodiesterase (PDE-I, PDE-II, PDE-III) present in the ventricular muscles were discretely eluted from a DEAE-cellulose column (Whatman, DE-52, .phi. 2.5×20 cm) using a continuous 70-800 mM sodium acetate gradient.
(§2) The phosphodiesterase activity was assayed by minor modifications of the method described by Furutani et al. (Y. Furutani, et al., Journal of Antibiotics, 28, 558-560, 1975). Briefly, 1 mM ^3 H-cAMP was hydrolyzed by the phosphodiesterase and the unhydrolyzed ^3 H-cAMP which was separated from the formed 5'-AMP by a dry alumina (Merck, activity 1, neutral) was counted by a liquid scintillation counter.
(§3) The concentrations causing a 50% inhibition of the phosphodiesterase activity (IC50) were calculated from the concentration-inhibition curves.

The target of series [4] is T1, PDE-II (Cavia porcellus, UniProt A0A286XUV5).
T1 construct: different forms of cyclic nucleotide phosphodiesterase from guinea pig left ventricular muscles; from tissue; host or cells: guinea pig left ventricular muscle, DEAE-cellulose fraction
T1 sequence (A0A286XUV5 22-936): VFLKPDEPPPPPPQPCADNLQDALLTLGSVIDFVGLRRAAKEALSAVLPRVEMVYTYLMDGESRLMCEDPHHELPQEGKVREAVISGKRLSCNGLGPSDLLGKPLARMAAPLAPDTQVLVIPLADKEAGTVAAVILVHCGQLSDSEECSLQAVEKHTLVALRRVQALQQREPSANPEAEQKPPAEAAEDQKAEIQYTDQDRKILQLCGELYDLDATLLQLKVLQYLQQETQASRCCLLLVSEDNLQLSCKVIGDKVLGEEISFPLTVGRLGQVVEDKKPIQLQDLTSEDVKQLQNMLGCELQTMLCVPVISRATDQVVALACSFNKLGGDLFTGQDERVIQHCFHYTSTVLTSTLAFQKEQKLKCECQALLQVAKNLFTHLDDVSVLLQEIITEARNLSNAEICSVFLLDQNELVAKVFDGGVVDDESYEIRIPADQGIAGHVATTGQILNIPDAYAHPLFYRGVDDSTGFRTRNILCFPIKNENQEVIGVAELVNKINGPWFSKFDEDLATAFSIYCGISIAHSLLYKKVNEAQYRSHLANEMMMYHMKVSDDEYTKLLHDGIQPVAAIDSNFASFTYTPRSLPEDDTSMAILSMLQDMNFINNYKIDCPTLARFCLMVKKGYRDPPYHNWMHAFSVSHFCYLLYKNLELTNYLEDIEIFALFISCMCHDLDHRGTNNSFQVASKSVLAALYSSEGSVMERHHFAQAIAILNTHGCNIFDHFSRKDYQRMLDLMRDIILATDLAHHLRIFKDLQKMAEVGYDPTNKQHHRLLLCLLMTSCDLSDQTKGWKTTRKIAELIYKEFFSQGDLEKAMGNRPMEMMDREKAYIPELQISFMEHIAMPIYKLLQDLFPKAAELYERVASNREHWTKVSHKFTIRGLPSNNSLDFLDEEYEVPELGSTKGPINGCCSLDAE
Nature of the series: Inhibition of Phosphodiesterase PDE-II. The note with it: 1 mM 3H-cAMP substrate. The format is biochemical, guinea pig (left ventricular muscles).
Source text: as §1, §2, §3

Series [5] addresses T2, PDE-III (Cavia porcellus, UniProt H0VIU9).
T2 construct: different forms of cyclic nucleotide phosphodiesterase from guinea pig left ventricular muscles; from tissue; host or cells: guinea pig left ventricular muscle, DEAE-cellulose fraction
T2 sequence (H0VIU9 1-1132): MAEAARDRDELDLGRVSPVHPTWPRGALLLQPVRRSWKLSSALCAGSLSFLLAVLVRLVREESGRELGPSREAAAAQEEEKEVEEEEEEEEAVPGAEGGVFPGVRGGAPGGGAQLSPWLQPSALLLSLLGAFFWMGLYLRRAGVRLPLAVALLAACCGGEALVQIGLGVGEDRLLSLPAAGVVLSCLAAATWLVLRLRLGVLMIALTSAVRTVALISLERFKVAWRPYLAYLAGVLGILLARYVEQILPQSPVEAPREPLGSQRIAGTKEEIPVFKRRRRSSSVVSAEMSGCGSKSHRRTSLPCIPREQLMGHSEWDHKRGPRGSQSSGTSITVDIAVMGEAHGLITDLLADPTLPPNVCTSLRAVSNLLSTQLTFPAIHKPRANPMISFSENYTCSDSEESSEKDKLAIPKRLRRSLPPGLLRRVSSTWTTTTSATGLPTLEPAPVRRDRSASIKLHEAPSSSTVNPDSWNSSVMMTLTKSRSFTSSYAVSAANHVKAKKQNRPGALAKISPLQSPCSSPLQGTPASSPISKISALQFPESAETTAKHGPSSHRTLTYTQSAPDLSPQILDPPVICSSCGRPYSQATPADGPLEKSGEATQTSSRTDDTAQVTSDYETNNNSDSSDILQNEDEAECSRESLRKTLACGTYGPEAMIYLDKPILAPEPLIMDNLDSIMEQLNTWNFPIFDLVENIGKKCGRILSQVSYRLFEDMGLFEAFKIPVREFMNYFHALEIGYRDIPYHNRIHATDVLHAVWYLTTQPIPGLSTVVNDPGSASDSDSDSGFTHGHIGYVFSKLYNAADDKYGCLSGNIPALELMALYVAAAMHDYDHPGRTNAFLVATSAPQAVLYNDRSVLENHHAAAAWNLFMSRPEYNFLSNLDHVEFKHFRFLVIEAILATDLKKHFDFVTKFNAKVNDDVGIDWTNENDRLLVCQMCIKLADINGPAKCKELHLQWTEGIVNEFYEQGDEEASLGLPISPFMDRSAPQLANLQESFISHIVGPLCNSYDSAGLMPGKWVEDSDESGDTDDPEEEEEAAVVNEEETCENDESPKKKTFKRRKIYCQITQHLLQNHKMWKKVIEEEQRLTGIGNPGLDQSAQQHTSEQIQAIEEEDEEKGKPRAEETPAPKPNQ
The series can be described thus: Inhibition of Phosphodiesterase PDE-III. The format is biochemical, guinea pig (left ventricular muscles).
Source text: as §1, §2, §3

Series [6] deals with mice. The series can be described thus: Acute Toxicity in mice, oral single dose. Format: in vivo, mouse (male). The note with it: male mice, 300 mg/kg, p.o., 7 days observation. An excerpt: The acute toxicity of the test compounds was studied in male mice after oral administration of a single dose.

pIC50: −log10 of the molar value. ≈ marks a conversion by molar mass, not a printed value.

In the case of `Cc1[nH]c(=O)c(C#N)cc1-c1ccncc1` [Milrinone, milrinone, reference compound], in series [1], the half-maximal effective concentration (EC50) amounted to 0.43 µg/mL (≈ 2.04 µM). Besides, the ED50 in series [2] (Canis lupus familiaris, iv, read-out: LVdp/dtmax ED50) was found to be 0.023 mg/kg. In series [2] (anesthetized dogs, i.v.), the “% Changes in Heart rate” value is given as 6%. The “% Changes in Blood pressure” value in series [2] (anesthetized dogs, i.v., femoral arterial pressure) is listed as -6%. Moreover, the pIC50 in series [3] is 3.82; in series [4] it was 3.85; in series [5], 5.55. Besides, in series [6], the “mortality (number of dead animals/number of treated animals)” value is listed as 3/3.

Usually EC50 stands for the concentration giving half of the maximal effect. For orientation: pIC50 means the negative decadic logarithm of the IC50, by convention in mol/L.
